Experimental data from the NIST ThermoML archive (doi:10.1016/j.jct.2008.10.002).
Numbers after ± are expanded uncertainties.

Experiments:
[1] = xn = mol fraction of the nth substance listed; settings: 101.3 kPa, Liquid, Vibrating tube method
[2] = molar heat capacity at constant pressure; xn = mol fraction of the nth substance listed; settings: 101.3 kPa, Liquid, Small sample (50 mg) DSC
[3] = excess molar enthalpy (molar enthalpy of mixing); xn = mol fraction of the nth substance listed; settings: 303.15 K, 101.3 kPa, Liquid

CCn1cc[n+](C)c1.O=S(=O)([O-])C(F)(F)F [1-ethyl-3-methylimidazolium trifluoromethanesulfonate] + O
Settings | mass density, [1] [kg/m3] | molar heat capacity at constant pressure, [2] [J/K/mol]
293.15 K, x1 = 0.0186 | 1063.6 ± 0.6 | 83.2 ± 1.3
293.15 K, x1 = 0.0522 | 1142.6 ± 0.5 | 94.2 ± 1.5
293.15 K, x1 = 0.0995 | 1208.9 ± 0.5 | 108.1 ± 1.7
293.15 K, x1 = 0.2037 | 1282.4 ± 0.5 | 138 ± 2.1
293.15 K, x1 = 0.2952 | 1315.7 ± 0.5 | 163.5 ± 2.5
293.15 K, x1 = 0.3868 | 1336.6 ± 0.5 | 188.5 ± 2.9
293.15 K, x1 = 0.4761 | 1350.7 ± 0.5 | 213.2 ± 3.3
293.15 K, x1 = 0.5771 | 1362.4 ± 0.5 | 240.9 ± 3.7
293.15 K, x1 = 0.6617 | 1370 ± 0.5 | 264 ± 4.1
293.15 K, x1 = 0.8398 | 1381.8 ± 0.6 | 314.4 ± 4.9
293.15 K, x1 = 0.8646 | 1383.1 ± 0.6 | 321.6 ± 5
298.15 K, x1 = 0.0186 | 1061.7 ± 0.6 | 83.1 ± 1.3
298.15 K, x1 = 0.0522 | 1139.6 ± 0.5 | 94.3 ± 1.5
298.15 K, x1 = 0.0995 | 1205.3 ± 0.5 | 108.6 ± 1.7
298.15 K, x1 = 0.2037 | 1278.3 ± 0.5 | 138.9 ± 2.2
298.15 K, x1 = 0.2952 | 1311.5 ± 0.5 | 164.5 ± 2.5
298.15 K, x1 = 0.3868 | 1332.4 ± 0.5 | 189.7 ± 2.9
298.15 K, x1 = 0.4761 | 1346.4 ± 0.5 | 214.5 ± 3.3
298.15 K, x1 = 0.5771 | 1358.1 ± 0.5 | 242.3 ± 3.8
298.15 K, x1 = 0.6617 | 1365.7 ± 0.5 | 265.6 ± 4.1
298.15 K, x1 = 0.8398 | 1377.5 ± 0.6 | 316.3 ± 4.9
298.15 K, x1 = 0.8646 | 1378.8 ± 0.6 | 323.5 ± 5
303.15 K, x1 = 0.0186 | 1059.5 ± 0.6 | 83.2 ± 1.3
303.15 K, x1 = 0.0522 | 1136.5 ± 0.5 | 94.6 ± 1.5
303.15 K, x1 = 0.0995 | 1201.6 ± 0.4 | 109.2 ± 1.7
303.15 K, x1 = 0.2037 | 1274.2 ± 0.5 | 139.9 ± 2.2
303.15 K, x1 = 0.2952 | 1307.2 ± 0.5 | 165.6 ± 2.6
303.15 K, x1 = 0.3868 | 1328.1 ± 0.5 | 190.9 ± 3
303.15 K, x1 = 0.4761 | 1342.2 ± 0.5 | 215.8 ± 3.3
303.15 K, x1 = 0.5771 | 1353.9 ± 0.5 | 243.8 ± 3.8
303.15 K, x1 = 0.6617 | 1361.5 ± 0.5 | 267.3 ± 4.1
303.15 K, x1 = 0.8398 | 1373.3 ± 0.6 | 318.2 ± 4.9
303.15 K, x1 = 0.8646 | 1374.6 ± 0.6 | 325.5 ± 5
308.15 K, x1 = 0.0186 | 1057.2 ± 0.6 | 83.1 ± 1.3
308.15 K, x1 = 0.0522 | 1133.3 ± 0.5 | 94.7 ± 1.5
308.15 K, x1 = 0.0995 | 1197.8 ± 0.4 | 109.6 ± 1.7
308.15 K, x1 = 0.2037 | 1270 ± 0.5 | 140.7 ± 2.2
308.15 K, x1 = 0.2952 | 1303 ± 0.5 | 166.6 ± 2.6
308.15 K, x1 = 0.3868 | 1323.9 ± 0.5 | 192.1 ± 3
308.15 K, x1 = 0.4761 | 1337.9 ± 0.5 | 217.1 ± 3.4
308.15 K, x1 = 0.5771 | 1349.7 ± 0.5 | 245.3 ± 3.8
308.15 K, x1 = 0.6617 | 1357.3 ± 0.5 | 269 ± 4.2
308.15 K, x1 = 0.8398 | 1369.1 ± 0.5 | 320.2 ± 5
308.15 K, x1 = 0.8646 | 1370.4 ± 0.6 | 327.5 ± 5.1
313.15 K, x1 = 0.0186 | 1054.7 ± 0.6 | 83.2 ± 1.3
313.15 K, x1 = 0.0522 | 1130 ± 0.5 | 95 ± 1.5
313.15 K, x1 = 0.0995 | 1193.9 ± 0.4 | 110.1 ± 1.7
313.15 K, x1 = 0.2037 | 1265.8 ± 0.5 | 141.5 ± 2.2
313.15 K, x1 = 0.2952 | 1298.7 ± 0.5 | 167.7 ± 2.6
313.15 K, x1 = 0.3868 | 1319.6 ± 0.5 | 193.3 ± 3
313.15 K, x1 = 0.4761 | 1333.7 ± 0.5 | 218.5 ± 3.4
313.15 K, x1 = 0.5771 | 1345.4 ± 0.5 | 246.9 ± 3.8
313.15 K, x1 = 0.6617 | 1353.1 ± 0.5 | 270.8 ± 4.2
313.15 K, x1 = 0.8398 | 1364.9 ± 0.5 | 322.1 ± 5
313.15 K, x1 = 0.8646 | 1366.3 ± 0.5 | 329.6 ± 5.1
318.15 K, x1 = 0.0186 | 1052.1 ± 0.5 | 83.4 ± 1.3
318.15 K, x1 = 0.0522 | 1126.7 ± 0.5 | 95.4 ± 1.5
318.15 K, x1 = 0.0995 | 1190.1 ± 0.4 | 110.6 ± 1.7
318.15 K, x1 = 0.2037 | 1261.6 ± 0.5 | 142.4 ± 2.2
318.15 K, x1 = 0.2952 | 1294.4 ± 0.5 | 168.8 ± 2.6
318.15 K, x1 = 0.3868 | 1315.3 ± 0.5 | 194.6 ± 3
318.15 K, x1 = 0.4761 | 1329.4 ± 0.5 | 220 ± 3.4
318.15 K, x1 = 0.5771 | 1341.2 ± 0.5 | 248.5 ± 3.9
318.15 K, x1 = 0.6617 | 1348.9 ± 0.5 | 272.6 ± 4.2
318.15 K, x1 = 0.8398 | 1360.8 ± 0.5 | 324.2 ± 5
318.15 K, x1 = 0.8646 | 1362.1 ± 0.5 | 331.7 ± 5.1

[3]
Settings | excess molar enthalpy [kcal/mol]
x1 = 0.1012 | 0.116 ± 0.00287
x1 = 0.1943 | 0.19 ± 0.0043
x1 = 0.2959 | 0.237 ± 0.00526
x1 = 0.4031 | 0.256 ± 0.0055
x1 = 0.4921 | 0.253 ± 0.0055
x1 = 0.5929 | 0.23 ± 0.00502
x1 = 0.6997 | 0.182 ± 0.00406
x1 = 0.7805 | 0.144 ± 0.00335
x1 = 0.844 | 0.107 ± 0.00263
